The values below come from US12415926B2, “Small tunable fluorophores for the detection and imaging of biomolecules” (The University Court of the University of Edinburgh, priority 2019, dated 2025).

Series [1] deals with GLUT2. Description: Zebrafish in vivo imaging of glucose uptake. To be noted: 28 hpf, 50 pmol into yolk sac. As to the method:
(§1) A-F) Green (GLUT4-EGFP), red (SCOTfluor-89, 100 μM) and merged (Hoechst 33342) images of HeLa cells without additional glucose (A-C) and in media containing 5 mM D-glucose ([…]). White arrows identify co-localization of GLUT4-EGFP and SCOTfluor-89. Scale bar: 10 μm. G) Fluorescence emission spectra of BFP (blue), GFP (green) and SCOTfluor-89 (red). H) Insulin-dependent (100 nM, 1 h) uptake of SCOTfluor-89 (red, 100 μM) in GLUT4-EGFP HeLa cells. I) Chemical structures of compounds SCOTfluor-54 and SCOTfluor-89. J) In vivo images of the head in zebrafish embryos (28 hpf) after injection of SCOTfluor-54 or SCOTfluor-89 (both 50 pmol) to the yolk sac (blue arrowheads). Fluorescence images were taken of wildtype zebrafish or zebrafish that had been injected at one cell stage with 4.2 ng anti-sense glut2 morpholino. Yellow arrows point at midbrain and hindbrain regions within the zebrafish embryo heads. Scale bar: 100 μm.
Anti-sense glut2 morpholino (5′-ATGACCTGCAGAC AACAAGGACACC-3′)^1 was reconstituted to 1 mM in nuclease-free H2O and injected at 4.2 ng/embryo into the one-cell stage. Embryos were maintained at 28.5° C., according to standard protocols. Wild-type controls and glut2 morphants were injected into the yolk sac at 28 hours post fertilization (hpf) with compound SCOTfluor-89 (50 pmol) and 1 mg mL^−1 10,000 MW Dextran Cascade Blue® (ThermoFisher), then embedded in 1% low-melting point agarose for live imaging. Live imaging was performed 30 min post-injection on an inverted Leica SP8 confocal microscope using a HC PL APO CS2 10×/0.40 dry lens. Dextran was excited at 405 nm laser and detected at 415-480 nm, while compound SCOTfluor-89 was excited at 488 nm and detected at 498-600 nm.
It was also examined whether SCOTfluors could be used to image in vivo tissues with high metabolic activity. Fluorescent deoxyglucose tracers can monitor glucose uptake in metabo-lically-active cells and tissues, although few have been reported for in vivo use. Herein synthesized compound SCOTfluor-89 was synthetized as an in vivo-compatible glucose analog by nucleophilic substitution of nitrobenzoselenadiazole with 2-deoxyglucosamine. […] The transport of SCOTfluor-89 in HeLa cells transfected with EGFP-tagged GLUT4, the main glucose transporter in mammalian cells was examined. […] Finally, compound SCOTfluor-89 was tested in vivo in zebrafish embryos to visualize regions of high glucose uptake. […] We confirmed that the staining was dependent on the active transport of SCOTfluor-89 through GLUT2 by examining glut2 morpholino-injected zebrafish, which have reduced levels of GLUT2.

Series [2] can be described thus: Optical properties of SCOTfluors (absorbance, emission, extinction coefficient, quantum yield, solvatochromism). Format: physicochemical. As to the method:
All compounds were dissolved in different organic solvents, including toluene, chloroform, tetrahydrofuran, ethanol, DMSO and water (final concentrations: 10-50 μM). Fluorescence spectra were acquired on a spectrophotometer upon excitation at their maxima absorbance wavelengths.
The optical properties of SCOTfluor-80, 79, 78, 76 and 81 were compared with the properties of the original NBD.

The test system of series [3] is HeLa cells. As to the kind of experiment: Cytotoxicity assay in HeLa cells. To be noted: 100 μM and 75 μM (1% DMSO), 4 h at 37° C.
Experimental: Cell viabilities were normalized to incubation in cell culture media under the same experimental conditions. A solution of 40% DMSO in cell culture media was used as a known cytotoxic positive control. Values represented as means±s.e.m. (n=3).
The target in series [4] is T1, GLUT4 (Homo sapiens, UniProt P14672).
T1 construct: PYP (photoactive yellow protein tag); HA; expressed in transfected cells; host or cells: HeLa
T1 sequence (P14672 1-509): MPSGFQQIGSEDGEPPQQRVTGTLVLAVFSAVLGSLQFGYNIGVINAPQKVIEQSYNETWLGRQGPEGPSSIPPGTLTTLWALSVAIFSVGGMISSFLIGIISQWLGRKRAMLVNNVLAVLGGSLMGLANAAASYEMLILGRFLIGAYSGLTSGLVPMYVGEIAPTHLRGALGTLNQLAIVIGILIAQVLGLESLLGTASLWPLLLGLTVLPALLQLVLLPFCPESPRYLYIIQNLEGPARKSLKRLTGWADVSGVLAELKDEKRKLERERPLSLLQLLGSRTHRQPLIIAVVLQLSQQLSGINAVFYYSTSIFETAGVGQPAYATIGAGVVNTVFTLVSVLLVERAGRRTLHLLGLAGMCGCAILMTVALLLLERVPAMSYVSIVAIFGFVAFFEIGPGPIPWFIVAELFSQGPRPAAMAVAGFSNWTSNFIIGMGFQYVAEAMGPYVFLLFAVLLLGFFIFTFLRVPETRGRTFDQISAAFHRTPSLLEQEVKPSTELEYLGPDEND
As to the kind of experiment: Uptake in GLUT4-EGFP transfected HeLa cells (fluorescence microscopy). It counts as cell-based. To be noted: 100 μM. As to the method: as §1
(§2) A549 and HeLa cells were obtained from LGC Standards and cultured in Dulbecco's modified Eagle's medium (DMEM) supplemented with 10% FBS, 100 U mL^−1 penicillin and 0.1 mg mL^−1 streptomycin. For transfection experiments, HeLa cells were transfected with pcDNA-PYP-GLUT4-HA-EGFP. Amplification of plasmid-DNA was performed by transformation of competent E. coli DH5a, followed by isolation of pcDNA-PYP-GLUT4-HA-EGFP using GeneJet Plasmid Miniprep kit (ThermoFisher) according to the manufacturer's instructions. Prior to transfection, pcDNA concentration was determined using NanoDrop. Transfection of HeLa cells was performed according to manufacturer's protocol with 1 μg pcDNA-PYP-GLUT4-HA-EGFP using Lipofectamine 3000. Non-transfected as well as transfected cells were maintained at 37° C. and 5% CO2 throughout the imaging experiments.
Confocal fluorescence microscopy was performed on a confocal Leica SP5 or a spinning disk microscope with excitation at 488 nm (ER Tracker, LysoTracker, EGFP & SCOTfluor-89), 561 nm (SCOTfluor-101) and 405 nm (Hoechst 33342). […]

Series [5] can be described thus: Emission of SCOTfluor-101 in PBS/water and in liposomes. Format: physicochemical.
Series [6] has as its system A549 cells. As to the kind of experiment: Time-lapse confocal microscopy co-localization with ER and lysosome markers. As to conditions: 50 μM. It counts as cell-based, human. As for the experimental part:
C) Time-lapse confocal microscopy images of A549 cells treated with SCOTfluor-101 (50 μM, red), LysoTracker Blue (magenta) and ER Tracker Green (green) after 15 min (co-localization: white arrows) and 3 h (co-localization: yellow arrows). Total co-localization coefficients (R) were determined using ImageJ. Scale bar: 15 μm.
as §2
Confocal fluorescence microscopy was performed on a confocal Leica SP5 or a spinning disk microscope with excitation at 488 nm (ER Tracker, LysoTracker, EGFP & SCOTfluor-89), 561 nm (SCOTfluor-101) and 405 nm (Hoechst 33342). Prior to time-lapse imaging and imaging of HeLa cells, cells were incubated in Krebs-Ringer bicarbonate buffer (KRB) (129 mM NaCl, 4.7 mM KCl, 1.2 mM KH2PO4, 5 mM NaHCO3, 10 mM HEPES; 2.5 mM CaCl2, 1.2 mM MgCl2 and 0.2% BSA, pH 7.4) at 37° C. for 3 h. When appropriate, HeLa cells were washed and imaged in KRB with 1 μM Hoechst 33342 at 37° C., 5% CO2.
Then, the properties of SCOTfluors for imaging the trafficking of essential metabolites under physiological conditions. […] This property was exploited to visualize the recycling of ceramide SCOTfluor-101 in real time in human A549 cells using fluorescence confocal microscopy. […]

Setting [7] is: glut2 morpholino-injected zebrafish embryos.

Take `CCN(CC)c1ccc([N+](=O)[O-])c2n[se]nc12` [SCOTfluor-54]: the “in vivo fluorescence staining” value in series [1] (setting [7]) and in series [1] (wildtype zebrafish embryos) was “no tissue-specific staining” throughout.

With `CCCNc1ccc([N+](=O)[O-])c2n[se]nc12` [SCOTfluor-76], in series [2], the Φ was 0.20, the ε was 16,300 M^−1cm^−1, the λabs. was 510 nm and the λem. came out at 606 nm. In addition, the “cytotoxicity (cell viability)” value in series [3] was “no significant cytotoxicity”.

With `CCCNc1ccc([N+](=O)[O-])c2nsnc12` [SCOTfluor-78], in series [2], the Φ is reported as 0.54, the ε is 14,600 M^−1cm^−1, the λabs. came out at 476 nm and the λem. came to 548 nm.

`CCCNc1ccc([N+](=O)[O-])c2n[nH]nc12` [SCOTfluor-79]: in series [2], the Φ is on record as below 0.01, the ε is given as 37,300 M^−1cm^−1, the λabs. came out at 420 nm and the λem. was 460 nm.

As for `CCCNc1ccc([N+](=O)[O-])c2c1=NC(C)(C)N=2` [SCOTfluor-80], in series [2], the Φ is listed as 0.09, the ε is listed as 27,300 M^−1cm^−1, the λabs. was 564 nm and the λem. came to 650 nm.

As for `CCCNc1ccc([N+](=O)[O-])c2c1=NC1(CCCCC1)N=2` [SCOTfluor-81], in series [2], the Φ was determined as 0.11, the ε is 28,300 M^−1cm^−1, the λabs. was determined as 546 nm and the λem. amounted to 650 nm. For the same compound, the “cytotoxicity (cell viability)” value in series [3] was “no significant cytotoxicity”.

In the case of `O=[N+]([O-])c1ccc(N[C@H]2C(O)O[C@H](CO)[C@@H](O)[C@@H]2O)c2n[se]nc12` (stereo partly drawn) [SCOTfluor-89, (3R,4R,5S,6R)-6-(hydroxymethyl)-3-((7-nitrobenzo[c][1,2,5]selenadiazol-4-yl)amino)tetrahydro-2H-pyran-2,4,5-triol], the Stokes shift in series [2] is given as 115 nm. Further, the emission result in series [2] is given as “around 605 nm”. Moreover, the “transport by GLUT4” value in series [4] is recorded as “functional substrate of GLUT4”. Further, in series [4] (5 mM D-glucose), the “uptake under competition with excess glucose” value is recorded as “blocked”. Besides, the “uptake after pre-treating with insulin” value in series [4] (insulin 100 nM, 1 h) is reported as “increased”. Besides, the results for the “in vivo fluorescence staining” value in series [1] (setting [7]) and in series [1] (wildtype zebrafish embryos) were “much weaker fluorescence” and “bright red fluorescence staining in regions of the developing brain”, respectively. In addition, the “cytotoxicity (cell viability)” value in series [3] was “no significant cytotoxicity”.

`CCCCCCCCCCCCC/C=C/[C@@H](O)[C@H](CO)NC(=O)CCCCCNc1ccc([N+](=O)[O-])c2c1=NC(C)(C)N=2` [SCOTfluor-101, N-((2S,3R,E)-1,3-dihydroxyoctadec-4-en-2-yl)-6-((2,2-dimethyl-7-nitro-2H-benzo[d]imidazol-4-yl)amino)hexanamide] had an emission in series [2] above 660 nm. The “increase in emission on incubation with liposomes” value in series [5] (phosphatidylcholine:cholesterol (7:1) liposomes vs PBS) is on record as “over 15 fold”. In addition, the aggregation in water result in series [5] (water) is “minimal aggregation”. In series [6] (15 min), the “co-localization (R) with ER Tracker Green” value is given as 91%. Besides, the “co-localization (R) with LysoTracker Blue” value in series [6] (15 min) amounted to 26%; in series [6] (after 3 h), 75%. Moreover, in series [3], the “cytotoxicity (cell viability)” value was “no significant cytotoxicity”.

Take “Nitrobenzodioxazole [NBD, reference compound]”: in series [2], the Φ is recorded as 0.55, the ε was 15,400 M^−1cm^−1, the λabs. amounted to 486 nm and the λem. worked out at 542 nm.
